From US20120115896A1, “ISOGENIC HUMAN CELL LINES COMPRISING MUTATED CANCER ALLELES AND PROCESS USING THE CELL LINES” (priority 2008, published 2012)
Like-named read-outs stand apart in the source and are kept apart here.

Assays:
[1] = test system: hTERT-HME1 DKI cells carrying PIK3CA (H1047R) and EGFR (delE746-A750); experiment: Drug assay: cell viability by ATP content (96 h), DKI versus parental cells; ΔKI pharmarray analysis
[2] = test system: hTERT-HME1 cells carrying KRAS (G13D) KI; experiment: Drug assay: cell viability by ATP content (96 h), KI versus parental cells; ΔKI pharmarray analysis
[3] = test system: hTERT-HME1 cells carrying PIK3CA (E545K and H1047R) KI; experiment: Drug assay: cell viability by ATP content (96 h) and Hoechst/propidium iodide staining, KI versus parental cells; ΔKI pharmarray analysis
[4] = test system: hTERT-HME1 cells carrying BRAF (V600E) KI; experiment: Drug assay: cell viability by ATP content (96 h), KI versus parental cells; ΔKI pharmarray analysis
[5] = test system: hTERT-HME1 cells carrying EGFR (delE746-A750) KI; experiment: Drug assay: cell viability by ATP content (CellTiter-Glo, 96 h), KI versus parental cells; ΔKI pharmarray analysis

CO[C@H]1/C=C\C=C(/C)C(=O)NC2=CC(=O)C(NCCN(C)C)=C(C[C@@H](C)C[C@H](OC)[C@H](O)[C@@H](C)/C=C(\C)[C@@H]1OC(N)=O)C2=O [17-DMAG]
ΔKI PIK3CA + EGFR ([1]; Log(M) −6.19): 1.4
ΔKI PIK3CA + EGFR ([1]; Log(M) −6.89): 4.46
ΔKI PIK3CA + EGFR ([1]; Log(M) −7.00): 0
ΔKI PIK3CA + EGFR ([1]; Log(M) −7.40): −0.12
ΔKI PIK3CA + EGFR ([1]; Log(M) −7.70): 0
ΔKI PIK3CA + EGFR ([1]; Log(M) −8.10): −1.02
ΔKI PIK3CA + EGFR ([1]; Log(M) −8.40): 0
ΔKI KRAS ([2]; Log(M) −6.19): 0
ΔKI KRAS ([2]; Log(M) −6.89): 0
ΔKI KRAS ([2]; Log(M) −7.00): 0
ΔKI KRAS ([2]; Log(M) −7.40): 0
ΔKI KRAS ([2]; Log(M) −7.70): 0
ΔKI KRAS ([2]; Log(M) −8.10): 0
ΔKI KRAS ([2]; Log(M) −8.40): 0
ΔKI PIK3CA ([3]; Log(M) −6.19): 0
ΔKI PIK3CA ([3]; Log(M) −6.89): 0
ΔKI PIK3CA ([3]; Log(M) −7.00): 0
ΔKI PIK3CA ([3]; Log(M) −7.40): 0
ΔKI PIK3CA ([3]; Log(M) −7.70): 0
ΔKI PIK3CA ([3]; Log(M) −8.10): 0
ΔKI PIK3CA ([3]; Log(M) −8.40): 0
ΔKI BRAF ([4]; Log(M) −6.19): 0
ΔKI BRAF ([4]; Log(M) −6.89): 0
ΔKI BRAF ([4]; Log(M) −7.00): 0
ΔKI BRAF ([4]; Log(M) −7.40): 0
ΔKI BRAF ([4]; Log(M) −7.70): 0
ΔKI BRAF ([4]; Log(M) −8.10): 0
ΔKI BRAF ([4]; Log(M) −8.40): 0
ΔKI EGFR ([5]; Log(M) −6.19): −1.5
ΔKI EGFR ([5]; Log(M) −6.89): −12.5
ΔKI EGFR ([5]; Log(M) −7.00): 0
ΔKI EGFR ([5]; Log(M) −7.40): 0
ΔKI EGFR ([5]; Log(M) −7.70): −8.56
ΔKI EGFR ([5]; Log(M) −8.10): 0
ΔKI EGFR ([5]; Log(M) −8.40): 0
pharmarray: differential response of EGFR mutated cells versus WT ([5]; hTERT-HME1, FIG. 5B, 5E): less susceptible than their WT counterpart

N.N.[Cl][Pt][Cl] [Cisplatin]
ΔKI PIK3CA + EGFR ([1]; Log(M) −4.70): 0
ΔKI PIK3CA + EGFR ([1]; Log(M) −5.00): 4.9
ΔKI PIK3CA + EGFR ([1]; Log(M) −5.70): 2.16
ΔKI PIK3CA + EGFR ([1]; Log(M) −6.00): 0.7
ΔKI PIK3CA + EGFR ([1]; Log(M) −6.70): 0
ΔKI PIK3CA + EGFR ([1]; Log(M) −7.00): −1.32
ΔKI KRAS ([2]; Log(M) −4.70): 0
ΔKI KRAS ([2]; Log(M) −5.00): 0
ΔKI KRAS ([2]; Log(M) −5.70): 0
ΔKI KRAS ([2]; Log(M) −6.00): 0
ΔKI KRAS ([2]; Log(M) −6.70): 0
ΔKI KRAS ([2]; Log(M) −7.00): 0
ΔKI PIK3CA ([3]; Log(M) −4.70): 0
ΔKI PIK3CA ([3]; Log(M) −5.00): 0
ΔKI PIK3CA ([3]; Log(M) −5.70): 0
ΔKI PIK3CA ([3]; Log(M) −6.00): 0
ΔKI PIK3CA ([3]; Log(M) −6.70): 0
ΔKI PIK3CA ([3]; Log(M) −7.00): 0
ΔKI BRAF ([4]; Log(M) −4.70): 3.82
ΔKI BRAF ([4]; Log(M) −5.00): 0
ΔKI BRAF ([4]; Log(M) −5.70): 7.62
ΔKI BRAF ([4]; Log(M) −6.00): 0
ΔKI BRAF ([4]; Log(M) −6.70): 0
ΔKI BRAF ([4]; Log(M) −7.00): 0
ΔKI EGFR ([5]; Log(M) −4.70): 0
ΔKI EGFR ([5]; Log(M) −5.00): 4.84
ΔKI EGFR ([5]; Log(M) −5.70): 0
ΔKI EGFR ([5]; Log(M) −6.00): 0
ΔKI EGFR ([5]; Log(M) −6.70): 0
ΔKI EGFR ([5]; Log(M) −7.00): 0

Erybraedin C
ΔKI PIK3CA + EGFR ([1]; Log(M) −4.70): 0.38
ΔKI KRAS [2]: 0
ΔKI KRAS ([2]; Log(M) −4.70): 0
ΔKI PIK3CA [3]: 0
ΔKI PIK3CA ([3]; Log(M) −4.70): 0
ΔKI BRAF [4]: 0
ΔKI BRAF ([4]; Log(M) −4.70): 0
ΔKI EGFR [5]: 0
ΔKI EGFR ([5]; Log(M) −4.70): 0

CC(C)c1c(C(=O)Nc2ccccc2)c(-c2ccccc2)c(-c2ccc(F)cc2)n1CC[C@@H](O)C[C@@H](O)CC(=O)[O-].CC(C)c1c(C(=O)Nc2ccccc2)c(-c2ccccc2)c(-c2ccc(F)cc2)n1CC[C@@H](O)C[C@@H](O)CC(=O)[O-].[Ca+2] [Atorvastatin Ca]
ΔKI PIK3CA + EGFR ([1]; Log(M) −5.25): 0
ΔKI PIK3CA + EGFR ([1]; Log(M) −5.85): 0
ΔKI PIK3CA + EGFR ([1]; Log(M) −6.46): 0
ΔKI KRAS ([2]; Log(M) −5.25): 0
ΔKI KRAS ([2]; Log(M) −5.85): 0
ΔKI KRAS ([2]; Log(M) −6.46): 0
ΔKI PIK3CA ([3]; Log(M) −5.25): 0
ΔKI PIK3CA ([3]; Log(M) −5.85): 9.44
ΔKI PIK3CA ([3]; Log(M) −6.46): 0
ΔKI BRAF ([4]; Log(M) −5.25): 0
ΔKI BRAF ([4]; Log(M) −5.85): −2.6
ΔKI BRAF ([4]; Log(M) −6.46): 0
ΔKI EGFR ([5]; Log(M) −5.25): 0
ΔKI EGFR ([5]; Log(M) −5.85): 0
ΔKI EGFR ([5]; Log(M) −6.46): 0

Sodium Phenylbutyrate
ΔKI PIK3CA + EGFR ([1]; Log(M) −1.97): 0
ΔKI PIK3CA + EGFR ([1]; Log(M) −2.44): 0
ΔKI PIK3CA + EGFR ([1]; Log(M) −2.92): 0
ΔKI KRAS ([2]; Log(M) −1.97): 0
ΔKI KRAS ([2]; Log(M) −2.44): 0
ΔKI KRAS ([2]; Log(M) −2.92): 0
ΔKI PIK3CA ([3]; Log(M) −1.97): 0
ΔKI PIK3CA ([3]; Log(M) −2.44): 0
ΔKI PIK3CA ([3]; Log(M) −2.92): 0
ΔKI BRAF ([4]; Log(M) −1.97): 0
ΔKI BRAF ([4]; Log(M) −2.44): 0
ΔKI BRAF ([4]; Log(M) −2.92): 0
ΔKI EGFR ([5]; Log(M) −1.97): 0
ΔKI EGFR ([5]; Log(M) −2.44): 0
ΔKI EGFR ([5]; Log(M) −2.92): 0

O=C1CCC(N2C(=O)c3ccccc3C2=O)C(=O)N1 (stereo not drawn) [OGC-065]
ΔKI PIK3CA + EGFR ([1]; Log(M) −2.05): 0
ΔKI PIK3CA + EGFR ([1]; Log(M) −3.35): −0.8
ΔKI KRAS [2]: 0
ΔKI KRAS ([2]; Log(M) −2.05): 0
ΔKI KRAS ([2]; Log(M) −3.35): 0
ΔKI PIK3CA [3]: 0
ΔKI PIK3CA ([3]; Log(M) −2.05): 1.9
ΔKI PIK3CA ([3]; Log(M) −3.35): 0
ΔKI BRAF [4]: 0
ΔKI BRAF ([4]; Log(M) −2.05): 0
ΔKI BRAF ([4]; Log(M) −3.35): 0
ΔKI EGFR [5]: 0
ΔKI EGFR ([5]; Log(M) −2.05): 0
ΔKI EGFR ([5]; Log(M) −3.35): −0.68

COc1cccc(-c2cc(=O)c3ccccc3o2)c1N [PD 98059]
ΔKI PIK3CA + EGFR ([1]; Log(M) −3.57): 0
ΔKI PIK3CA + EGFR ([1]; Log(M) −4.05): 0
ΔKI PIK3CA + EGFR ([1]; Log(M) −4.52): 0
ΔKI KRAS ([2]; Log(M) −3.57): 0
ΔKI KRAS ([2]; Log(M) −4.05): 0
ΔKI KRAS ([2]; Log(M) −4.52): 0
ΔKI PIK3CA ([3]; Log(M) −3.57): 0
ΔKI PIK3CA ([3]; Log(M) −4.05): 0
ΔKI PIK3CA ([3]; Log(M) −4.52): 0
ΔKI BRAF ([4]; Log(M) −3.57): 0
ΔKI BRAF ([4]; Log(M) −4.05): 0
ΔKI BRAF ([4]; Log(M) −4.52): 4
ΔKI EGFR ([5]; Log(M) −3.57): 0
ΔKI EGFR ([5]; Log(M) −4.05): 3.5
ΔKI EGFR ([5]; Log(M) −4.52): 0

CN(C)CCCn1cc(C2=C(c3c[nH]c4ccccc34)C(=O)NC2=O)c2ccccc21 [Bisindolylmaleimide I]
ΔKI PIK3CA + EGFR [1]: 0
ΔKI PIK3CA + EGFR ([1]; Log(M) −5.70): 0
ΔKI KRAS [2]: 0
ΔKI KRAS ([2]; Log(M) −5.70): 0
ΔKI PIK3CA [3]: 0
ΔKI PIK3CA ([3]; Log(M) −5.70): 0
ΔKI BRAF [4]: 0
ΔKI BRAF ([4]; Log(M) −5.70): 0
ΔKI EGFR [5]: 0
ΔKI EGFR ([5]; Log(M) −5.70): 0
